Test results published in patent publication US9180163B2, “Parstatin peptides” (priority 2009, dated 2015).

Columns and labels:
[1] = tested on: VEGF-induced retinal leukostasis in C57BL/6J mice; experiment: VEGF-induced retinal leukostasis model; assay type: in vivo, mouse; conditions: for reduction of firmly adhering leukocytes vs VEGF-treated controls: 5 μg co-injected with VEGF; for firmly adhering leukocytes: 5 μg co-injected with VEGF (10 μM), 6 h
Procedure: Inflammatory leukocyte accumulation is a common feature of major ocular diseases. […] VEGF, which is a potent chemoattractant for leukocytes, is increased in ischemic retina and is necessary for retinal neovascularization to occur. Parstatin (1-41), hydrophobic parstatin (1-26) fragment and hydrophilic parstatin (24-41) fragment were used in an in vivo mice model of VEGF-induced retinal leukostasis.
C57BL/6J (4-5 week-old) mice were anesthetized with ketamine hydrochloride (100 mg/kg body weight) and xylazine (4 mg/Kg body weight) and the pupils were dilated with 1% tropicamide. Intravitreal injections of 1 μl solutions of 10 μM VEGF, which is the optimal concentration for promoting leukostasis, or parstatin (1-41) or parstatin (24-41) in phosphate buffered saline (PBS) or PBS alone or the combinations were administered. Also, intravitreal injections of 1 μl solutions of parstatin (1-26) in dimethyl sulphoxide (DMSO) or DMSO alone were administered to assess leukostasis. Six hours after intravitreal injections, which was the optimal time determined for VEGF-induced leukostasis, animals were perfused with PBS to remove intravascular content, including nonadherent leukocytes. Perfusion with FITC-conjugated Concanavalin A (40 μg/ml in PBS, Vector Labs, Burlingame, Calif.) was then performed to label adherent leukocytes and vascular endothelial cells, followed by removal of residual unbound lectin with PBS perfusion. Retinal flat mounts were prepared and examined with the Axioskop microscope and images were digitized. The total numbers of leukocytes adhering to the retinal vessels were counted at 200× by the same investigator, with the investigator being masked as to the nature of the specimen.

[2] = tested on: corneas of Sprague-Dawley rats; experiment: corneal histopathology after chemical burn (vessels, neutrophils); assay type: in vivo, rat; conditions: 2×50 μg, day 7
Procedure: After the above-described processes were performed, the rats were sacrificed (7 days) and the eyes were excised. All eyes were sectioned (4 μm) and stained with hematoxylin-eosin. Two independent pathologists, in a blinded manner, evaluated the microvessel density and the inflammatory cell infiltration in each slide. Total corneal vascular vessels and neutrophils were counted at 200× in seven representative stained tissue sections for each eye, covering all cornea area and having a similar distance from the central burn.

[3] = tested on: choroidal neovascularization in C57BL/6J mice; assay type: in vivo; conditions: 10 μg intravitreal after laser and day 7; assessed day 14; vs vehicle (PBS or DMSO)
Procedure: Parstatin (1-41), hydrophobic parstatin (1-26) fragment and hydrophilic parstatin (24-41) fragment were used in an in vivo mouse model of choroidal neovascularization. In particular, laser photocoagulation-induced rupture of Bruch's membrane was used to generate choroidal neovascularization as a preclinical disease model for age-related macular degeneration. Pathogen-free C57BL/6J (4-5 week-old) mice were treated in accordance with the Association for Research in Vision and Ophthalmology Statement for the Use of Animals in Ophthalmic and Vision Research and the guidelines of the Animal Care and Use Committee at local University Medical School.
C57BL/6J (4-5 week-old) mice were anesthetized with ketamine hydrochloride (100 mg/kg body weight) and xylazine-(4 mg/Kg body weight) and the pupils were dilated with 1% tropicamide. Laser photocoagulation (75 μm spot size, 0.1 sec duration, 120 mW) was performed in the 9, 12, and 3 o'clock positions of the posterior pole of the retina with the slit lamp delivery system of an Oculight GL diode laser (Index, Mountain View, Calif.) and a handheld cover slip as a contact lens to view the retina. Production of a bubble at the time of laser, which indicates rupture of Bruch's membrane, is an important factor in obtaining CNV. Therefore, only burns in which a bubble was produced were included in the study. Two weeks after rupture of Bruch's membrane, anesthetized mice were perfused with 50 mg/ml fluorescein-labelled-dextran (2×10^6 average molecular weight, Sigma-Aldrich, St. Louis, Mo.). The eyes were then dissected and fixed in 10% Formalin for 3 hours and choroidal flat mounts were examined by fluorescence microscopy. Image-Pro Plus software (Media Cybernetics, Silver Spring, Md.) was used to measure the total area of CNV at each rupture site by personnel blinded as to study treatments and groups.
Intraocular injections of parstatin peptides were performed with a Harvard pump microinjection apparatus and pulled glass micropipets. […] Choroidal neovascularization was assessed 14 days after laser treatment.

## TRARRPESKATNATLDPR (listed as Homo sapiens) [parstatin (24-41), 24-41 (18 amino acids) of human parstatin, hydrophilic fragment]
[1]
  reduction of firmly adhering leukocytes vs VEGF-treated controls: 55%
  firmly adhering leukocytes: 81±21 cells/retina
[2]
  inhibition of corneal mean number of vascular vessels: 68%
  inhibition of mean number of infiltrated neutrophils: 75%
[3]
  inhibition of choroidal neovascularization: 77%

## MGPRRLLLVAACFSLCGPLLSARTRA (listed as Homo sapiens) [parstatin (1-26)]
[1]
  reduction of firmly adhering leukocytes vs VEGF-treated controls: 59%
  firmly adhering leukocytes: 74±32 cells/retina
[2]
  inhibition of corneal mean number of vascular vessels: 55%
  inhibition of mean number of infiltrated neutrophils: 71%
[3]
  inhibition of choroidal neovascularization: 62%
